Patent US12053459B2, “CDK2 inhibitors and methods of using the same” (Cedilla Therapeutics, Inc., priority 2021, dated 2024)

Tests used:
Kuramochi cells = assay: BrdU cell proliferation assay (colorimetric ELISA), Kuramochi cells; type: cell-based; details: class symbols A-D
Method: A BrdU assay was used as a measure of proliferation based on the DNA replication process of proliferating cells. BrdU, a pyrimidine analog, is added to the cell culture and incorporated into the DNA of proliferating cells. The presence of the BrdU analog was then measured through a colorimetric ELISA. After fixation and permeabilization of cells, peroxidase-conjugated antibody recognizing BrdU is added and allowed to incubate, followed by thorough washing to remove unbound antibody. In order to quantify the amount of bound antibody, peroxidase substrate is added and produces a color that can be measured at 450 nm.
On day −1, Kuramochi cells (Sekisui XenoTech JCRB0098) were seeded at 2,000 cells/well in columns 2-12 of a 96 well plate (Corning, CLS3596) in 150 uL media and allowed to adhere overnight at 37 degree with 5% CO2. In order to assess specificity of the compounds, Kuramochi RB^KO cells were also plated and treated, as RB^KO cells were not expected to show a proliferative response to CCNE/CDK specific inhibitors.
On day 0, the source plate was prepared by adding 10 mM compounds and performing 3-fold serial dilutions for a 4-point dose response of each compound. Using a multichannel pipette, 2 uL of the contents of the source plate were stamped into an intermediate plate with 500 uL of RPMI 1640 Media, GlutaMAX Supplement (Life Technologies, 61870127) in each well of a Nunc 96 DeepWell™ plate, non-treated 96 DeepWell plate, 2 mL/well, sterile, natural, 60/cs (Sigma Z717274) and mixed thoroughly. 50 uL from row A of this intermediate plate were added to rows A-H of one plate of previously seeded Kuramochi cells, and each subsequent row of the intermediate plate was added to a full plate of cells.
On day 4, the plates were developed using the BrdU ELISA Cell Proliferation Assay according to manufacturer's instructions (Roche, 11647229001). Briefly, BrdU was diluted 1:100 in Gibco®, Opti-MEM® and 20 μL/well was added, shaken for 10 minutes at 350 rpm, and then returned to the incubator for 1 hour. Following incubation, the medium was discarded, and the cells were fixed by adding 200 μL of Fix/Denature solution. The anti-BrdU peroxidase antibody was diluted 1:1000 in OptiMEM, added at 100 μL/well, and incubated while shaking (350 rpm) for one hour. Three washes with PBS were performed to remove any unbound antibody, followed by the addition of 100 μL of substrate solution to each well. […] was then added to halt the reaction, and plates were read out using an Envision spectrophotometer (Perkin Elmer) set to read 450 nm absorbance. Background absorbance values from empty wells were subtracted from all samples and then normalized to DMSO treated wells.

CDK2/Cyclin E1(14-475) = CDK2/Cyclin E1(14-475) (Homo sapiens, UniProt P24941); assay: Caliper LabChip EZ Reader mobility shift assay, inhibition of CDK2/Cyclin E1 activity; type: biochemical; details: class symbols A-D
Method: Inhibition of CDK2/Cyclin E1 activity in the presence of compounds of the present disclosure was evaluated using a Caliper LabChip® EZ Reader mobility shift assay. In the assay, activated CDK2/Cyclin E1 catalyzes the phosphorylation of a fluorescently tagged peptide 5-FAM-QSPKKG-CONH2 (PerkinElmer, FL Peptide 18) which induces a difference in capillary electrophoresis mobility. The peptide substrate and product were measured, and the conversion ratio was used to determine the inhibition (as % activity and IC50 values) of CDK2/Cyclin E1. Reactions contained 50 mM HEPES pH 7.5, 10 mM MgCl2, 1 mM EDTA, 2 mM DTT, 0.01% Brij35, 0.5 mg/mL BSA, 0.1% DMSO, 2.5 nM CDK2/Cyclin E1(14-475), 100 μM ATP, and 1.5 μM fluorescent peptide substrate.
Dose titrations of inhibitors in 100% DMSO were combined with 3.25 nM CDK2/Cyclin E1(14-475) and 130 μM of ATP in reaction buffer. The mixtures were incubated for 30 minutes before the addition of fluorescent peptide substrate to initiate the kinase reaction. The final conditions were 2.5 nM CDK2/Cyclin E1(14-475), 100 μM ATP, and 1.5 μM fluorescent peptide. The reactions were stopped after 100 minutes with the addition of EDTA (6 mM final EDTA concentration). The stopped reactions were analyzed on a Caliper LabChip® EZ Reader II. The conversion ratios were normalized to yield % activity, plotted against compound concentration, and fit to a four-parameter equation to determine the IC50 for each compound.

IC50 (CDK2/Cyclin E1(14-475)) | Structure (SMILES) | IC50 (Kuramochi cells)
> 10 µM | CNC(=O)[C@H](CCCc1ccccc1)NC(=O)C1CN(C(=O)Cc2c[nH]c3cc(Cl)ccc23)CC2CN(C(=O)c3nn(C)c4ccccc34)CC21 (some centres unmarked) [I-47] | > 10 µM
> 10 µM | CNC(=O)[C@H](CCCc1ccccc1)NC(=O)C1CN(C(=O)Cc2c[nH]c3cc(Cl)ccc23)CC2CN(C(=O)c3c4ccccc4nn3C)CC21 (some centres unmarked) [I-48] | > 10 µM
5 to 10 µM | CNC(=O)[C@H](CCCc1ccccc1)NC(=O)C1CN(C(=O)Cc2c[nH]c3cc(Cl)ccc23)CC2CN(C(=O)c3ccc(CC(C)C)cc3)CC21 (some centres unmarked) [I-52] | > 10 µM
> 10 µM | CNC(=O)[C@H](CCCc1ccccc1)NC(=O)C1CN(C(=O)Cc2c[nH]c3cc(Cl)ccc23)CC2CN(C(=O)c3cnn(C)c3)CC21 (some centres unmarked) [I-55] | > 10 µM
0.5 to 5 µM | CNC(=O)[C@H](CCCc1ccccc1)NC(=O)C1CN(C(=O)Cc2c[nH]c3cc(Cl)ccc23)CC2CN(C(=O)c3cc(C)[nH]n3)CC21 (some centres unmarked) [I-56] | > 10 µM
> 10 µM | CNC(=O)[C@H](CCCc1ccccc1)NC(=O)C1CN(C(=O)Cc2c[nH]c3cc(Cl)ccc23)CC2CN(C(=O)c3ncccn3)CC21 (some centres unmarked) [I-57] | > 10 µM
> 10 µM | CCc1ccc(C(=O)N2CC3CN(C(=O)Cc4c[nH]c5cc(Cl)ccc45)CC(C(=O)N[C@@H](CCCc4ccccc4)C(=O)NC)C3C2)nc1 (some centres unmarked) [I-58] | > 10 µM
> 10 µM | CNC(=O)[C@H](CCCc1ccccc1)NC(=O)C1CN(C(=O)Cc2c[nH]c3cc(Cl)ccc23)CC2CN(C(=O)c3cncc(C)n3)CC21 (some centres unmarked) [I-60] | > 10 µM
> 10 µM | CNC(=O)[C@H](CCCc1ccccc1)NC(=O)C1CN(C(=O)Cc2c[nH]c3cc(Cl)ccc23)CC2CN(C(=O)c3cc4ccccc4[nH]3)CC21 (some centres unmarked) [I-61] | > 10 µM
> 10 µM | CNC(=O)[C@H](CCCc1ccccc1)NC(=O)C1CN(C(=O)Cc2c[nH]c3cc(Cl)ccc23)CC2CN(C(=O)c3ccc4c(N)n[nH]c4c3)CC21 (some centres unmarked) [I-65] | > 10 µM
> 10 µM | CNC(=O)[C@H](CCCc1ccccc1)NC(=O)C1CN(C(=O)Cc2c[nH]c3cc(Cl)ccc23)CC2CN(C(=O)c3cnc(-c4ccccc4)s3)CC21 (some centres unmarked) [I-70] | > 10 µM
> 10 µM | CNC(=O)[C@H](CCCc1ccccc1)NC(=O)C1CN(C(=O)Cc2c[nH]c3cc(Cl)ccc23)CC2CN(C(=O)c3ccc4oc(=O)[nH]c4c3)CC21 (some centres unmarked) [I-75] | > 10 µM
> 10 µM | CNC(=O)[C@H](CCCc1ccccc1)NC(=O)C1CN(C(=O)Cc2c[nH]c3cc(Cl)ccc23)CC2CN(C(=O)c3ccc(C)cn3)CC21 (some centres unmarked) [I-78] | > 10 µM
> 10 µM | CNC(=O)[C@H](CCCc1ccccc1)NC(=O)C1CN(C(=O)Cc2c[nH]c3cc(Cl)ccc23)CC2CN(C(=O)c3ccc4cccnc4c3)CC21 (some centres unmarked) [I-80] | > 10 µM

Continued, compound first:

Structure (SMILES) | IC50 (CDK2/Cyclin E1(14-475)) | IC50 (Kuramochi cells)
CNC(=O)[C@H](CCCc1ccccc1)NC(=O)C1CN(C(=O)Cc2c[nH]c3cc(Cl)ccc23)CC2CN(C(=O)c3ccc(NC(=O)C4CC4)c(OC)c3)CC21 (some centres unmarked) [I-54] | > 10 µM | > 10 µM
CNC(=O)[C@H](CCCc1ccccc1)NC(=O)C1CN(C(=O)Cc2c[nH]c3cc(Cl)ccc23)CC2CN(C(=O)c3ccc(-c4cncnc4)cc3)CC21 (some centres unmarked) [I-59] | > 10 µM | > 10 µM
CNC(=O)[C@H](CCCc1ccccc1)NC(=O)C1CN(C(=O)Cc2c[nH]c3cc(Cl)ccc23)CC2CN(C(=O)c3ccc(NS(C)(=O)=O)c(OC)c3)CC21 (some centres unmarked) [I-66] | > 10 µM | > 10 µM
CNC(=O)[C@H](CCCc1ccccc1)NC(=O)C1CN(C(=O)Cc2c[nH]c3cc(Cl)ccc23)CC2CN(C(=O)c3ccc(NC(=O)CC4CC4)c(OC)c3)CC21 (some centres unmarked) [I-69] | > 10 µM | > 10 µM
CNC(=O)[C@H](CCCc1ccccc1)NC(=O)C1CN(C(=O)Cc2c[nH]c3cc(Cl)ccc23)CC2CN(C(=O)c3cc(-c4ccccc4)n(C)n3)CC21 (some centres unmarked) [I-71] | > 10 µM | > 10 µM
CNC(=O)[C@H](CCCc1ccccc1)NC(=O)C1CN(C(=O)Cc2c[nH]c3cc(Cl)ccc23)CC2CN(C(=O)c3ccc4[nH]c(=O)oc4c3)CC21 (some centres unmarked) [I-72] | > 10 µM | > 10 µM
CNC(=O)[C@H](CCCc1ccccc1)NC(=O)C1CN(C(=O)Cc2c[nH]c3cc(Cl)ccc23)CC2CN(C(=O)c3ccc4c(c3)oc(=O)n4C)CC21 (some centres unmarked) [I-73] | > 10 µM | > 10 µM
CNC(=O)[C@H](CCCc1ccccc1)NC(=O)C1CN(C(=O)Cc2c[nH]c3cc(Cl)ccc23)CC2CN(C(=O)c3c[nH]c(-c4ccccc4)n3)CC21 (some centres unmarked) [I-74] | > 10 µM | > 10 µM
CNC(=O)[C@H](CCCc1ccccc1)NC(=O)C1CN(C(=O)Cc2c[nH]c3cc(Cl)ccc23)CC2CN(C(=O)c3ccc(-c4cccnc4)cc3)CC21 (some centres unmarked) [I-79] | 5 to 10 µM | > 10 µM
CNC(=O)[C@H](CCCc1ccccc1)NC(=O)C1CN(C(=O)Cc2c[nH]c3cc(Cl)ccc23)CC2CN(C(=O)c3ccc(OC(F)(F)F)c(OC)c3)CC21 (some centres unmarked) [I-82] | 0.5 to 5 µM | 5 to 10 µM
CNC(=O)[C@H](CCCc1ccccc1)NC(=O)C1CN(C(=O)Cc2c[nH]c3cc(Cl)ccc23)CC2CN(C(=O)c3cc4c(c(OC)c3)OC(C)(C)C4)CC21 (some centres unmarked) [I-83] | ≤ 0.5 µM | > 10 µM
CNC(=O)[C@H](CCCc1ccccc1)NC(=O)C1CN(C(=O)Cc2c[nH]c3cc(Cl)ccc23)CC2CN(C(=O)c3ccc4c(c3)c(OC)nn4C(C)C)CC21 (some centres unmarked) [I-84] | 0.5 to 5 µM | > 10 µM
CNC(=O)[C@H](CCCc1ccccc1)NC(=O)C1CN(C(=O)Cc2c[nH]c3cc(Cl)ccc23)CC2CN(C(=O)c3ccc(OC(C)C)c4occc34)CC21 (some centres unmarked) [I-85] | ≤ 0.5 µM | > 10 µM
COc1cc(C(=O)N2CC3CN(C(=O)Cc4c[nH]c5cc(Cl)ccc45)CC(C(=O)N[C@@H]4CCCN(Cc5ccccc5)C4)C3C2)ccc1OC(C)C (stereo partly drawn) [I-88, N—((R)-1-benzylpiperidin-3-yl)-5-(2-(6-chloro-1H-indol-3-yl)acetyl)-2-(4-isopropoxy-3-methoxybenzoyl)octahydro-1H-pyrrolo[3,4-c]pyridine-7-carboxamide] | > 10 µM | > 10 µM
COc1cc(C(=O)N2CC3CN(C(=O)Cc4c[nH]c5cc(Cl)ccc45)CC(C(=O)NC4CCCN(C(=O)c5ccccc5)C4)C3C2)ccc1OC(C)C (centres unmarked) [I-89] | > 10 µM | > 10 µM
COc1cc(C(=O)N2CC3CN(C(=O)Cc4c[nH]c5cc(Cl)ccc45)CC(C(=O)NC4CCCN(C(=O)Cc5ccccc5)C4)C3C2)ccc1OC(C)C (centres unmarked) [I-90] | > 10 µM | > 10 µM
CNC(=O)[C@H](CCCc1ccccn1)NC(=O)C1CN(C(=O)Cc2c[nH]c3cc(Cl)ccc23)CC2CN(C(=O)c3ccc(OC(C)C)c(OC)c3)CC21 (some centres unmarked) [I-91] | 0.5 to 5 µM | > 10 µM
CNC(=O)[C@H](NC(=O)C1CN(C(=O)Cc2c[nH]c3cc(Cl)ccc23)CC2CN(C(=O)c3ccc(OC(C)C)c(OC)c3)CC21)[C@@H](C)OCc1ccccc1 (some centres unmarked) [I-92] | > 10 µM | > 10 µM
CNC(=O)C(CCCC1CCCC1)NC(=O)C1CN(C(=O)Cc2c[nH]c3cc(Cl)ccc23)CC2CN(C(=O)c3ccc(OC(C)C)c(OC)c3)CC21 (centres unmarked) [I-93] | 0.5 to 5 µM | > 10 µM
CNC(=O)[C@H](CCCC1CCC(C(F)(F)F)CC1)NC(=O)C1CN(C(=O)Cc2c[nH]c3cc(Cl)ccc23)CC2CN(C(=O)c3ccc(OC(C)C)c(OC)c3)CC21 (some centres unmarked) [I-94] | > 10 µM | > 10 µM
